From PubChem BioAssay AID2060506 (Molecular Pharmacology Branch, DTP, NCI, 2025)

Test system: 598228-144-R-J1-PDC complex spheroid viability
Assay: Anticancer human tumor 598228-144-R-J1-PDC patient-derived serous endometrial adenocarcinoma cell line growth inhibition [GQUAD]
Conditions: for IC50: curve of first compound; for viability, T/C: stronger effect = lower value
Outline: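 Tumor cells were grown as complex spheroids with HUVEC endothelial cells and mesenchymal stem cells as stroma. G-quadruplex stabilizers were combined with targeted agents over half-log dilutions from near the clinical Cmax, or from 10 microM.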

[1] = second compound 0.0316 µM, first compound 0.0316 µM
[2] = second compound 0.0316 µM, first compound 0.1 µM
[3] = second compound 0.0316 µM, first compound 0.316 µM
[4] = second compound 0.0316 µM, first compound 1 µM
[5] = second compound 0.0316 µM, first compound 3.16 µM
[6] = second compound 0.0316 µM, first compound 10 µM
[7] = second compound 0.1 µM, first compound 0.0316 µM
[8] = second compound 0.1 µM, first compound 0.1 µM
[9] = second compound 0.1 µM, first compound 0.316 µM
[10] = second compound 0.1 µM, first compound 1 µM
[11] = second compound 0.1 µM, first compound 3.16 µM
[12] = second compound 0.1 µM, first compound 10 µM
[13] = second compound 0.316 µM, first compound 0.0316 µM
[14] = second compound 0.316 µM, first compound 0.1 µM
[15] = second compound 0.316 µM, first compound 0.316 µM
[16] = second compound 0.316 µM, first compound 1 µM
[17] = second compound 0.316 µM, first compound 3.16 µM
[18] = second compound 0.316 µM, first compound 10 µM
[19] = second compound 1 µM, first compound 0.0316 µM
[20] = second compound 1 µM, first compound 0.1 µM
[21] = second compound 1 µM, first compound 0.316 µM
[22] = second compound 1 µM, first compound 1 µM
[23] = second compound 1 µM, first compound 3.16 µM
[24] = second compound 1 µM, first compound 10 µM
[25] = second compound 3.16 µM, first compound 0.0316 µM
[26] = second compound 3.16 µM, first compound 0.1 µM
[27] = second compound 3.16 µM, first compound 0.316 µM
[28] = second compound 3.16 µM, first compound 1 µM
[29] = second compound 3.16 µM, first compound 3.16 µM
[30] = second compound 3.16 µM, first compound 10 µM
[31] = second compound 10 µM, first compound 0.0316 µM
[32] = second compound 10 µM, first compound 0.1 µM
[33] = second compound 10 µM, first compound 0.316 µM
[34] = second compound 10 µM, first compound 1 µM
[35] = second compound 10 µM, first compound 3.16 µM
[36] = second compound 10 µM, first compound 10 µM
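Also: spheroids exposed to the agents for one week before reading.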
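For viability, T/C in this document: percent of vehicle DMSO control viability so 100% = untreated growth.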

## COc1cc(C2c3cc4c(cc3C(OC3OC5COC(C)OC5C(O)C3O)C3COC(=O)C23)OCO4)cc(OC)c1O (stereo unspecified) + Cc1[nH]c2ccc(F)cc2c1-c1nc2c3cccnc3c3ncccc3c2[nH]1
Second compound 0.0316 µM
  IC50: > 10 µM
Second compound 0.1 µM
  IC50: > 10 µM
Second compound 0.316 µM
  IC50: > 10 µM
Second compound 1 µM
  IC50: 4.15 µM
Second compound 3.16 µM
  IC50: < 0.0316 µM
Second compound 10 µM
  IC50: 4.49 µM
[1]
  viability, T/C: 91.8%
[2]
  viability, T/C: 85.6%
[3]
  viability, T/C: 87%
[4]
  viability, T/C: 71%
[5]
  viability, T/C: 60.4%
[6]
  viability, T/C: 51.3%
[7]
  viability, T/C: 92.9%
[8]
  viability, T/C: 77.5%
[9]
  viability, T/C: 66.2%
[10]
  viability, T/C: 71.8%
[11]
  viability, T/C: 68.7%
[12]
  viability, T/C: 48.6%
[13]
  viability, T/C: 119%
[14]
  viability, T/C: 72%
[15]
  viability, T/C: 76.7%
[16]
  viability, T/C: 66%
[17]
  viability, T/C: 66%
[18]
  viability, T/C: 47.6%
[19]
  viability, T/C: 62.6%
[20]
  viability, T/C: 59.5%
[21]
  viability, T/C: 58.5%
[22]
  viability, T/C: 44.7%
[23]
  viability, T/C: 62%
[24]
  viability, T/C: 43.1%
[25]
  viability, T/C: 43.2%
[26]
  viability, T/C: 42%
[27]
  viability, T/C: 39.3%
[28]
  viability, T/C: 46.2%
[29]
  viability, T/C: 38.2%
[30]
  viability, T/C: 43.5%
[31]
  viability, T/C: 54.6%
[32]
  viability, T/C: 62.9%
[33]
  viability, T/C: 55.7%
[34]
  viability, T/C: 47.9%
[35]
  viability, T/C: 61.9%
[36]
  viability, T/C: 34.9%

## O=C(NO)c1cnc(N2CCN(S(=O)(=O)c3ccc4ccccc4c3)CC2)nc1 + Cc1[nH]c2ccc(F)cc2c1-c1nc2c3cccnc3c3ncccc3c2[nH]1
Second compound 0.0316 µM
  IC50: 0.187 µM
Second compound 0.1 µM
  IC50: 0.248 µM
Second compound 0.316 µM
  IC50: 0.209 µM
Second compound 1 µM
  IC50: 0.123 µM
Second compound 3.16 µM
  IC50: < 0.0316 µM
Second compound 10 µM
  IC50: 0.127 µM
[1]
  viability, T/C: 120%
[2]
  viability, T/C: 80.4%
[3]
  viability, T/C: 25.1%
[4]
  viability, T/C: 0.4%
[5]
  viability, T/C: 0.21%
[6]
  viability, T/C: 0.21%
[7]
  viability, T/C: 99.4%
[8]
  viability, T/C: 97.2%
[9]
  viability, T/C: 37.5%
[10]
  viability, T/C: 0.48%
[11]
  viability, T/C: 0.3%
[12]
  viability, T/C: 0.23%
[13]
  viability, T/C: 94.3%
[14]
  viability, T/C: 90.2%
[15]
  viability, T/C: 27.6%
[16]
  viability, T/C: 0.67%
[17]
  viability, T/C: 0.25%
[18]
  viability, T/C: 0.34%
[19]
  viability, T/C: 62.3%
[20]
  viability, T/C: 52.7%
[21]
  viability, T/C: 28.8%
[22]
  viability, T/C: 1%
[23]
  viability, T/C: 0.31%
[24]
  viability, T/C: 0.56%
[25]
  viability, T/C: 39.8%
[26]
  viability, T/C: 29.3%
[27]
  viability, T/C: 19.3%
[28]
  viability, T/C: 0.37%
[29]
  viability, T/C: 0.44%
[30]
  viability, T/C: 0.51%
[31]
  viability, T/C: 67.4%
[32]
  viability, T/C: 54.9%
[33]
  viability, T/C: 27.5%
[34]
  viability, T/C: 1.72%
[35]
  viability, T/C: 0.78%
[36]
  viability, T/C: 0.43%

## COc1ncnc(C2CC2)c1-c1ncc2cnn(Cc3ccc(-c4nc(C(F)(F)F)cn4C(C)C)cc3)c2n1 + Cc1[nH]c2ccc(F)cc2c1-c1nc2c3cccnc3c3ncccc3c2[nH]1
Second compound 0.0316 µM
  IC50: > 10 µM
Second compound 0.1 µM
  IC50: > 10 µM
Second compound 0.316 µM
  IC50: > 10 µM
Second compound 1 µM
  IC50: > 10 µM
Second compound 3.16 µM
  IC50: < 0.0316 µM
Second compound 10 µM
  IC50: > 10 µM
[1]
  viability, T/C: 130%
[2]
  viability, T/C: 124%
[3]
  viability, T/C: 125%
[4]
  viability, T/C: 93.1%
[5]
  viability, T/C: 119%
[6]
  viability, T/C: 112%
[7]
  viability, T/C: 116%
[8]
  viability, T/C: 94.5%
[9]
  viability, T/C: 103%
[10]
  viability, T/C: 91.8%
[11]
  viability, T/C: 114%
[12]
  viability, T/C: 130%
[13]
  viability, T/C: 94.3%
[14]
  viability, T/C: 93.3%
[15]
  viability, T/C: 82%
[16]
  viability, T/C: 93.1%
[17]
  viability, T/C: 126%
[18]
  viability, T/C: 105%
[19]
  viability, T/C: 51.1%
[20]
  viability, T/C: 76.1%
[21]
  viability, T/C: 74.5%
[22]
  viability, T/C: 58%
[23]
  viability, T/C: 66.2%
[24]
  viability, T/C: 78.3%
[25]
  viability, T/C: 38%
[26]
  viability, T/C: 31.1%
[27]
  viability, T/C: 39.2%
[28]
  viability, T/C: 34.2%
[29]
  viability, T/C: 41.8%
[30]
  viability, T/C: 38.7%
[31]
  viability, T/C: 65%
[32]
  viability, T/C: 65%
[33]
  viability, T/C: 69.6%
[34]
  viability, T/C: 57.2%
[35]
  viability, T/C: 77.7%
[36]
  viability, T/C: 105%
